For assay [1], the target named is T1, CFTR G551D mutant (Homo sapiens, UniProt P13569, G551D).
T1 construct: expressed in transfected cells; host or cells: HEK293 (reverse transfection with plasmid)
Put plainly: YFP-halide influx assay for the CFTR-G551D mutation. The format is cell-based. The conditions noted are these: HEK293 cells, forskolin 10.67 μM. From the text:
The YFP halide influx assay measures the functionality of the cystic fibrosis Transmembrane Conductance regulator (CFTR) channels. The assay is used to evaluate the capacity of compounds to increase the channel opening of existing mutant CFTR channels in the membrane. It makes use of the observation that the yellow fluorescent protein (YFP) variant YFP H148Q, I152L, […] has its fluorescence substantially quenched by halide ions like Cl^− and I^−. (Galietta, Haggie, & Verkman, 2001)
For this purpose, HEK293-cells are seeded in 96 well plates. During seeding, the cells are reverse-transfected with plasmid vectors that direct the expression of the CFTR G551D mutant and of the YFP reporter. Cells are incubated at 37° C., 5% CO2 for 24 hours so as to allow for sufficient expression of the CFTR protein.
The I^−-induced quenching of fluorescence is recorded immediately after injection of I^− for 7 seconds. The capacity of a compound to increase the channel opening is directly correlated with the decrease in fluorescence, and is expressed as (1-(fluorescence after 7 seconds (F)/fluorescence before injection (F0))) and an EC50 can be derived from a (1-F/F0) vs compound concentration plot.

The target of assay [2] is T2, CFTR ΔF508 mutant (Homo sapiens, UniProt P13569, DEL508-508).
T2 construct: expressed in transfected cells; host or cells: CFBE41o- (adenoviral transduction)
Nature of the assay: YFP-halide influx assay for the CFTR-ΔF508 mutation (384 well, FDSS/μCell). The class given is cell-based. The conditions noted are these: CFBE41o- cells, CFTR-ΔF508, 1×D-PBS, fluorescence after 36 seconds. From the text: The YFP halide influx assay measures the functionality of the cystic fibrosis Transmembrane Conductance regulator (CFTR) channels in the cystic fibrosis bronchial epithelium cell line CFBE41o-. The assay is used to evaluate the capacity of compounds to increase the open probability of existing CFTR channels in the membrane. It makes use of the observation that the yellow fluorescent protein (YFP) variant YFP H148Q, I152L has its fluorescence substantially quenched by halide ions like Cl— and I—. (Galietta, Haggie, & Verkman, 2001) (Nagai, et al., 2002)
For this purpose, CFBE41o-cells are seeded in 384 well plates (3000 CFBE cells/well). One day after seeding, the CFBE cells are transduced with adenoviral vectors that direct the expression of the CFTR ΔF508 mutant and of the YFP reporter. Cells are incubated at 27° C., 5% CO2 for 24 hours so as to allow for the proper folding and migration to the membrane of the CFTR channel or treated with a CFTR modulator during 24 h at 37° C.
The I— induced quenching of fluorescence is recorded […] immediately after injection of I— for 2 min on an FDSS/μCell (Hamamatsu). The capacity of a compound to increase the channel opening is directly correlated with the decrease in fluorescence, and is expressed as (1-(fluorescence after 36 seconds (F)/fluorescence before injection (F0))) and an EC50 can be derived from a (1-F/F0) vs compound concentration plot.

Where only a bound is given, the exact number is not on record here.

T2 sequence (P13569 with tags, fused parts or gaps DEL508-508): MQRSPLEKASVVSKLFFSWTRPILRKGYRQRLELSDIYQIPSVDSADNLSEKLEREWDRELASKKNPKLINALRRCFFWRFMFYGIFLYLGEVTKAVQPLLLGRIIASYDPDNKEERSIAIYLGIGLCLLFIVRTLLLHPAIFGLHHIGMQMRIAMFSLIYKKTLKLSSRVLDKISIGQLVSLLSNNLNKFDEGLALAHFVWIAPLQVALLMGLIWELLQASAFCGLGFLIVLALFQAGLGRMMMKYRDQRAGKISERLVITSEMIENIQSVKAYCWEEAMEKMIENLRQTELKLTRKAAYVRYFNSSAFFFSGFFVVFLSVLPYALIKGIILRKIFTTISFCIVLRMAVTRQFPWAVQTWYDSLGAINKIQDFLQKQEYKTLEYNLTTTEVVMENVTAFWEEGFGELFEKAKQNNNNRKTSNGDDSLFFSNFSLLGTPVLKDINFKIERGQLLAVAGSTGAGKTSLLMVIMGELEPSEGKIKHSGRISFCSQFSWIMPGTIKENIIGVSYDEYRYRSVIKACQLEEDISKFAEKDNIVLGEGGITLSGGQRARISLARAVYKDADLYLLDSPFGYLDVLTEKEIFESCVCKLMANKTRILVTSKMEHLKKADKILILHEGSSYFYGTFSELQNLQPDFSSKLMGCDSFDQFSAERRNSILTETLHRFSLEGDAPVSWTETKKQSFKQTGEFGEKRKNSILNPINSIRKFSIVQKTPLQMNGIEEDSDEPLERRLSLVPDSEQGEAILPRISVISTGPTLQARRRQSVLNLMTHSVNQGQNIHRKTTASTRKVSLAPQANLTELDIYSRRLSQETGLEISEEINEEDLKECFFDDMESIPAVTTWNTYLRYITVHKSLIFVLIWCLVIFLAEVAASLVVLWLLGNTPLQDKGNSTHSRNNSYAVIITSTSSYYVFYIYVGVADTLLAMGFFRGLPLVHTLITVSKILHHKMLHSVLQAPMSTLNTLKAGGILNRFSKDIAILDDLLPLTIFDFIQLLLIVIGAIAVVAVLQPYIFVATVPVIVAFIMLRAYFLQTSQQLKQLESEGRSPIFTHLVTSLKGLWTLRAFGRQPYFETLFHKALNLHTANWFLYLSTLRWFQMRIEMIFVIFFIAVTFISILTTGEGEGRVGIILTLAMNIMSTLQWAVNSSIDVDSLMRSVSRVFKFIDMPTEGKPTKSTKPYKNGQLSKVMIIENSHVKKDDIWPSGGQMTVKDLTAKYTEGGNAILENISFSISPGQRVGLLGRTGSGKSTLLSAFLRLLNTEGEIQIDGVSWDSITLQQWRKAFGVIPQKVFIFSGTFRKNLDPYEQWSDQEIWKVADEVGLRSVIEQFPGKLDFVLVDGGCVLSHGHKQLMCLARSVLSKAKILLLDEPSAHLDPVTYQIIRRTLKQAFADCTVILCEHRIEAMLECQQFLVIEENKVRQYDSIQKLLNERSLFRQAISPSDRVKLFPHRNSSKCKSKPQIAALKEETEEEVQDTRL
T1 sequence (P13569 whole entry G551D): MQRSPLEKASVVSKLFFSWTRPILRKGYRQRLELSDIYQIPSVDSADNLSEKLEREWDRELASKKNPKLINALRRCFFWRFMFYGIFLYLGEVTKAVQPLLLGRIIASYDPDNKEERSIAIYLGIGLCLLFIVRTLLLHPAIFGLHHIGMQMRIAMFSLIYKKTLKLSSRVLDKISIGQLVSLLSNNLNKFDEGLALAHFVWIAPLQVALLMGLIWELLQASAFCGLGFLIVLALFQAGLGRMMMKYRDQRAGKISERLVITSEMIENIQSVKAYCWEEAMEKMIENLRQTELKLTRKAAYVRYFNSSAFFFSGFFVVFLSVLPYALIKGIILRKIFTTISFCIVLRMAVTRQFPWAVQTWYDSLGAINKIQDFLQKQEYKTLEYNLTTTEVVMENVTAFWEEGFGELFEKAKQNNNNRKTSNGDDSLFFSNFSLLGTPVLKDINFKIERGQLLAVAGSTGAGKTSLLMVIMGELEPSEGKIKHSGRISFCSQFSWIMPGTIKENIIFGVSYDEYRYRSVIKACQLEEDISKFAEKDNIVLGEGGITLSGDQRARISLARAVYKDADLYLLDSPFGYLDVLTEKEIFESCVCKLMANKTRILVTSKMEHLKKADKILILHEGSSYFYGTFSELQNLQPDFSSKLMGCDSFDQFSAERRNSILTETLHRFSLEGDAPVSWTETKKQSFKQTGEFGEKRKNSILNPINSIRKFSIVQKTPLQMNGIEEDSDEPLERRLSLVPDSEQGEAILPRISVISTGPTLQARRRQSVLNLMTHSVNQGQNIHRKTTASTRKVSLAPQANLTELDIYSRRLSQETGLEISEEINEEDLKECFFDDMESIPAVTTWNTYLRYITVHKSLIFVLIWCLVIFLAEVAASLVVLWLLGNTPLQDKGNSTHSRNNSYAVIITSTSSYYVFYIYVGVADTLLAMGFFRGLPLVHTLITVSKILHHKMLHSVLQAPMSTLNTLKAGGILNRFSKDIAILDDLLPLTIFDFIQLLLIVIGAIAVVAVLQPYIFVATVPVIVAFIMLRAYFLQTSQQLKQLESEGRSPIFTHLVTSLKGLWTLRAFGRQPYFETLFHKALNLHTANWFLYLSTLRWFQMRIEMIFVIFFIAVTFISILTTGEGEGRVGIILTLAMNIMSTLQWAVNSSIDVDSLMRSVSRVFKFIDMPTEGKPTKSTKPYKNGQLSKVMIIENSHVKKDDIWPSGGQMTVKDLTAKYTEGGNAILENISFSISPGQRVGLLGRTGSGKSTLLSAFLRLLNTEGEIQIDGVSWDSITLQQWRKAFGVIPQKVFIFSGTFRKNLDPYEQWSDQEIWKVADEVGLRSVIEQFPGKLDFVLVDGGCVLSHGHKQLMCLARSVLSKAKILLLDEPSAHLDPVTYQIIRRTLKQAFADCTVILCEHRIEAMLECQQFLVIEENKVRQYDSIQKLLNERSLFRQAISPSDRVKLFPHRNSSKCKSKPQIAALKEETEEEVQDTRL

For the compound `CC(C)CC(O)C(=O)Nc1sc(S(=O)(=O)c2ccc(F)cc2)cc1C(N)=O` (stereo not drawn) [Compound 343, 5-(4-fluorophenyl)sulfonyl-2-[(2-hydroxy-4-methyl-pentanoyl)amino] thiophene-3-carboxamide], the results for the EC50 in assay [1] and in assay [2] were 1420 nM and 92.4 nM, respectively.

As to `NC(=O)c1cc(S(=O)(=O)c2ccc(OC(F)(F)F)cc2)sc1NC(=O)C1CCCO1` (stereo not drawn) [Compound 442, N-[3-carbamoyl-5-[4-(trifluoromethoxy)phenyl]sulfonyl-2-thienyl] tetrahydrofuran-2-carboxamide], the 50% effective concentration (EC50) in assay [1] was determined as 3330 nM; in assay [2], 90.9 nM.

With `C[C@@H](O)C(=O)Nc1sc(S(=O)(=O)c2ccc(OC(F)(F)F)cc2)cc1C(N)=O` [Compound 332, 2-[[(2R)-2-hydroxypropanoyl]amino]-5-[4-(trifluoromethoxy)phenyl] sulfonyl-thiophene-3-carboxamide], the values for the EC50 in assay [1] and in assay [2] were 525 nM and 22.8 nM, respectively.

Consider `CC(C)C(O)C(=O)Nc1sc(S(=O)(=O)c2ccc(F)cc2)cc1C(N)=O` (single isomer, unassigned; enantiomer 1) [Compound 352], for which the EC50 in assay [1] is more than 1340 nM; in assay [1] (class symbol) it was more than 1000 nM; in assay [2], 12.2 nM.

For the compound `CC(C)(O)C(=O)Nc1sc(S(=O)(=O)c2cccc3c2OC(F)(F)O3)cc1C(N)=O` [Compound 330, 5-[(2,2-difluoro-1,3-benzodioxol-4-yl)sulfonyl]-2-[(2-hydroxy-2-methyl-propanoyl)amino] thiophene-3-carboxamide], the EC50 in assay [1] was found to be 62.2 nM; in assay [2] it was 5.3 nM.

`CC(C)(O)C(=O)Nc1sc(S(=O)(=O)c2cccnc2C(F)(F)F)cc1C(N)=O` [Compound 436, 2-[(2-hydroxy-2-methyl-propanoyl)amino]-5-[[2-(trifluoromethyl)-3-pyridyl]sulfonyl] thiophene-3-carboxamide]: the concentration for a half-maximal effect (EC50) in assay [1] stood at 1730 nM; in assay [2], 32.1 nM.

As to `COc1cnc(C(F)(F)F)nc1S(=O)(=O)c1cc(C(N)=O)c(NC(=O)C(C)(C)O)s1` [Compound 415, 2-[(2-hydroxy-2-methyl-propanoyl)amino]-5-[5-methoxy-2-(trifluoromethyl)pyrimidin-4-yl]sulfonyl-thiophene-3-carboxamide], the EC50 in assay [1] (class symbol) was more than 1000 nM; in assay [2], 305 nM.

Regarding `CC(C)CC(O)C(=O)Nc1sc(S(=O)(=O)c2ccc(OC(F)(F)F)cc2)cc1C(N)=O` (stereo not drawn) [Compound 346, 2-[(2-hydroxy-4-methyl-pentanoyl)amino]-5-[4-(trifluoromethoxy)phenyl] sulfonyl-thiophene-3-carboxamide], the half-maximal effective concentration (EC50) in assay [1] turned out to be 682 nM; in assay [2] it was 470 nM.

Consider `Cc1c(S(=O)(=O)c2ccc(C(F)(F)F)cc2F)sc(NC(=O)C(C)(C)O)c1C(N)=O` [Compound 439, 5-[2-fluoro-4-(trifluoromethyl)phenyl]sulfonyl-2-[(2-hydroxy-2-methyl-propanoyl)amino]-4-methyl-thiophene-3-carboxamide], for which the concentration giving a half-maximal response (EC50) in assay [1] stood at 6660 nM; in assay [2] it was 7.16 nM.

Consider `C[C@@H](O)C(=O)Nc1sc(S(=O)(=O)c2ccc(F)cc2)cc1C(N)=O` [Compound 327, 5-(4-fluorophenyl) sulfonyl-2-[[(2R)-2-hydroxypropanoyl]amino] thiophene-3-carboxamide], for which the EC50 in assay [1] amounted to 3330 nM; in assay [2], 134 nM.

Regarding `CC(CO)C(=O)Nc1sc(S(=O)(=O)c2cc(Cl)ccc2OC(F)(F)F)cc1C(N)=O` (stereo not drawn) [Compound 386, 5-[5-chloro-2-(trifluoromethoxy)phenyl] sulfonyl-2-[(3-hydroxy-2-methyl-propanoyl)amino] thiophene-3-carboxamide], the EC50 was determined as 25.9 nM in assay [1] and 2 nM in assay [2].

As for `CC(C)(O)C(=O)Nc1sc(S(=O)(=O)c2ccc(C#N)cc2)cc1C(N)=O` [Compound 381, 5-(4-cyanophenyl)sulfonyl-2-[(2-hydroxy-2-methyl-propanoyl)amino] thiophene-3-carboxamide], the figures for the concentration for a half-maximal effect (EC50) in assay [1] and in assay [2] were 1310 nM and 55.9 nM, respectively.

Regarding `CCc1ccccc1S(=O)(=O)c1cc(C(N)=O)c(NC(=O)C(C)O)s1` (stereo not drawn) [Compound 312, 5-(2-Ethyl-benzenesulfonyl)-2-(2-hydroxy-propionylamino)-thiophene-3-carboxylic acid amide], the EC50 in assay [1] came out at 1820 nM; in assay [2], 10.5 nM.

On to `Cc1ccc(S(=O)(=O)c2cc(C(N)=O)c(NC(=O)C(C)(C)O)s2)nc1` [Compound 384, 2-[(2-hydroxy-2-methyl-propanoyl)amino]-5-[(5-methyl-2-pyridyl)sulfonyl] thiophene-3-carboxamide], for which the EC50 in assay [1] turned out to be 2740 nM; in assay [2], 159 nM.

Consider `CC(C)(O)C(=O)Nc1sc(S(=O)(=O)c2nc(CO)ccc2C(F)(F)F)cc1C(N)=O` [Compound 438, 2-[(2-hydroxy-2-methyl-propanoyl)amino]-5-[[6-(hydroxymethyl)-3-(trifluoromethyl)-2-pyridyl]sulfonyl] thiophene-3-carboxamide], for which the half-maximal effective concentration (EC50) in assay [1] (class symbol) is more than 1000 nM; in assay [2] it was 216 nM.

For the compound `CN1COCc2cc(S(=O)(=O)c3cc(C(N)=O)c(NC(=O)C(C)(C)O)s3)ccc21` [Compound 434, 2-[(2-hdyroxy-2-methyl-propanoyl)amino]-5-[(1-methyl-2,4-dihydro-3,1-benzoxazin-6-yl)sulfonyl] thiophene-3-carboxamide], the 50% effective concentration (EC50) in assay [1] is 1930 nM; in assay [2], 227 nM.

Turning to `CC(O)C(=O)Nc1sc(S(=O)(=O)c2ccc(C(F)(F)F)cc2)cc1C(N)=O` (stereo not drawn) [Compound 398, 2-(2-hydroxypropanoylamino)-5-[4-(trifluoromethyl)phenyl]sulfonyl-thiophene-3-carboxamide], the 50% effective concentration (EC50) in assay [1] was determined as 515 nM; in assay [2] it was 22.8 nM.

In the case of `CC(CO)C(=O)Nc1sc(S(=O)(=O)c2ccc(Cl)cc2)cc1C(N)=O` (stereo not drawn) [Compound 362, 5-(4-chlorophenyl)sulfonyl-2-[(3-hydroxy-2-methyl-propanoyl)amino] thiophene-3-carboxamide], the 50% effective concentration (EC50) in assay [1] was 1230 nM; in assay [2] it was 22.3 nM.

`NC(=O)c1cc(S(=O)(=O)c2ccc(OC(F)(F)F)cc2)sc1NC(=O)C1CCOC1` (stereo not drawn) [Compound 443, N-[3-carbamoyl-5-[4-(trifluoromethoxy)phenyl]sulfonyl-2-thienyl] tetrahydrofuran-3-carboxamide]: the EC50 in assay [1] turned out to be 3330 nM; in assay [2] it was 107 nM.

Turning to `CC(O)C(=O)Nc1sc(S(=O)(=O)c2ccc(F)cc2Cl)cc1C(N)=O` (single isomer, unassigned; enantiomer 1) [Compound 353], the results for the EC50 in assay [1] and in assay [2] were 1720 nM and 10.8 nM, respectively.

Consider `NC(=O)c1cc(S(=O)(=O)c2cc(F)ccc2Cl)sc1NC(=O)CO` [Compound 339, 5-(2-Chloro-5-fluoro-benzensulfonyl)-2-(2-hydroxy-acetylamino)-thiophene-3-carboxylic acid amide], for which the EC50 is 1750 nM in assay [1] and 8.1 nM in assay [2].

As for `CC(O)C(=O)Nc1sc(S(=O)(=O)c2ccc(Cl)cc2)cc1C(N)=O` (single isomer, unassigned; enantiomer 1) [Compound 347], the half-maximal effective concentration (EC50) in assay [1] is 1390 nM; in assay [2], 19.1 nM.

For the compound `NC(=O)c1cc(S(=O)(=O)c2ccc(OC(F)(F)F)cc2)sc1NC(=O)C1(CO)CC1` [Compound 357, 2-[[1-(hydroxymethyl)cyclopropanecarbonyl]amino]-5-[4-(trifluoromethoxy)phenyl] sulfonyl-thiophene-3-carboxamide], the EC50 is 301 nM in assay [1] and 29.7 nM in assay [2].

For the compound `CC(C)(O)C(=O)Nc1sc(S(=O)(=O)c2cc(C#N)ccc2OC(F)(F)F)cc1C(N)=O` [Compound 372, 5-[5-cyano-2-(trifluoromethoxy)phenyl] sulfonyl-2-[(2-hydroxy-2-methyl-propanoyl)amino] thiophene-3-carboxamide], the EC50 in assay [1] worked out at 72.6 nM; in assay [2] it was 4.8 nM.

In the case of `CC(C)(O)C(=O)Nc1sc(S(=O)(=O)c2ccc(C(F)(F)F)cc2)cc1C(N)=O` [Compound 344, 2-[(2-hydroxy-2-methyl-propanoyl)amino]-5-[4-(trifluoromethyl)phenyl] sulfonyl-thiophene-3-carboxamide], the EC50 worked out at 237 nM in assay [1] and 36 nM in assay [2].
